The values below come from patent publication US11760775B2, “Steroids and protein-conjugates thereof” (Regeneron Pharmaceuticals, Inc., priority 2016, dated 2023).

Where a name gives a salt, the structure may show the parent alone. Read-outs that look alike come from different tables or passages of the source. Bounds are passed on as bounds.

For assay [1], the system named is GR activation in 293/PRLR/GRE-Luc cells (HEK293/9xUAS-Luc2P/pBind-GR/PRLR-HA high cells). As to the kind of experiment: GR co-activator luciferase reporter cell based assay in 293/PRLR/GRE-Luc cells. The arrangement: species or system human. The conditions noted are these: for Emax / EC50: Homo sapiens; for Emax: HEK293, read-out: Activation (fold activation relative to Budesonide) in HEK293/9xUAS-Luc2P/pBind-GR/PRLR-HA high cells; for EC50: HEK293, read-out: HEK293/9xUAS-Luc2P/pBind-GR/PRLR-HA high cells EC50; for HEK293/9xUAS-Luc2P/pBind-GR/PRLR-HA high cells activation relative to Budesonide: fold activation vs Budesonide.
Excerpt: Bioassays described herein were used to assess the efficacy of free steroids and anti-PRLR-ncADCs. In one example, the bioassay assessed the activity of steroids, after internalization of a site-specific anti-PRLR-GC steroid ADC into cells, to bind to pBIND-GR and subsequent luciferase reporter activation. […] Then such stable cell line was further transfected with a chimeric receptor consisting of a GR ligand binding domain fused to the yeast Gal4 DNA binding domain (pBind-GR, Promega Cat #E1581), and a Gal4 upstream activator sequence (9×Gal4UAS-Luc2P) that drives luciferase gene expression.
(§1) For this assay, 20,000 cells were seeded in 96-well plates in media containing DMEM supplemented with 10% FBS and pencillin/streptomycin (complete media) and grown overnight at 37° C. in 5% CO2. […] Luciferase activity was determined by addition of OneGlo™ reagent (Promega, Cat #E6130) and relative light units (RLUs) were measured on a Victor luminometer (Perkin Elmer). The EC50 values were determined from a four-parameter logistic equation over a 10 point response curve using GraphPad Prism.
as §1, with “One-Glo™” for “OneGlo™”, “10-point” for “10 point”, “Prism. […] Minimal activation in this assay is defined as less than 10% of the maximal activation measured with the free payload.” for “Prism.”

For assay [2], the target named is Glucocorticoid Receptor (GR) (Homo sapiens (Human), UniProt P04150). As to the kind of experiment: LanthaScreen TR-FRET GR Competitive Binding Assay (cell free). For orientation: In TR-FRET formats the signal depends on donor and acceptor labels being close together.
Glucocorticoid Receptor (GR), sequence (P04150 524-758): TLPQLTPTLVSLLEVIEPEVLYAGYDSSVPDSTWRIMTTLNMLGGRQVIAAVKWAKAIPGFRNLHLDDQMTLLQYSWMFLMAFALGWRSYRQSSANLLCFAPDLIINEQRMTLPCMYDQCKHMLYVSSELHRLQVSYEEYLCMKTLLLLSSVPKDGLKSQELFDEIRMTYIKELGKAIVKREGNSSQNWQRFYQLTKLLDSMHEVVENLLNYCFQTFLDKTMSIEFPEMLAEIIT

`CCC(=O)O[C@]1(C(=O)CNC)[C@@H](C)C[C@H]2[C@@H]3C[C@H](F)C4=CC(=O)C=C[C@]4(C)[C@@]3(F)[C@@H](O)C[C@@]21C` [Compound 14-2, (1R,2S,8S,10S,11S,13S,14R,15S,17S)-1,8-difluoro-17-hydroxy-2,13,15-trimethyl-14-[2-(methylamino)acetyl]-5-oxotetracyclo[8.7.0.0^2,70.0^11,15]heptadeca-3,6-dien-14-yl propanoate]: in assay [1] (72 hours of incubation), the Emax is less than 20% and the EC50 was greater than 0.1 µM. Besides, the IC50 – broadly, the concentration at which inhibition is half-maximal – in assay [2] was less than 0.01 µM.

Turning to `[2H]c1c([2H])c(OCC(=O)[C@@]23OC(CCC)O[C@@H]2C[C@H]2[C@@H]4C[C@H](F)C5=CC(=O)C=C[C@]5(C)[C@@]4(F)[C@@H](O)C[C@@]23C)c([2H])c([2H])c1N` (stereo partly drawn) [Compound 6-ID, (1S,2S,4R,8S,9S,11S,12R,13S,19S)-8-{2-[4-Amino(2,3,5,6-^2H4)phenoxy]acetyl}-12,19-difluoro-11-hydroxy-9,13-dimethyl-6-propyl-5,7-dioxapentacyclo[10.8.0.0^2,9.0^4,8.0^13,18]icosa-14,17-dien-16-one], in assay [1], the EC50 was less than 0.01 µM and the “HEK293/9xUAS-Luc2P/pBind-GR/PRLR-HA high cells activation relative to Budesonide” value is reported as “Full”. In addition, the IC50 in assay [2] was less than 0.01 µM.

For the molecule `CCC[C@@H]1O[C@@H]2C[C@H]3[C@@H]4C[C@H](F)C5=CC(=O)C=C[C@]5(C)[C@@]4(F)[C@@H](O)C[C@]3(C)[C@]2(C(=O)COc2ccc(N)cc2)O1` [Compound R-6-I], in assay [1], the EC50 is less than 0.01 µM and the “HEK293/9xUAS-Luc2P/pBind-GR/PRLR-HA high cells activation relative to Budesonide” value is “Full”. For the same molecule, the IC50 in assay [2] was less than 0.01 µM.

Take `CCCC1O[C@@H]2C[C@H]3[C@@H]4C[C@H](F)C5=CC(=O)C=C[C@]5(C)[C@@]4(F)[C@@H](O)C[C@]3(C)[C@]2(C(=O)COc2cccc(N)n2)O1` (stereo partly drawn) [11-17 R/S, (1S,2S,4R,8S,9S,11S,12R,13S,19S)-8-{2-[(6-Aminopyridin-2-yl)oxy]acetyl}-12,19-difluoro-11-hydroxy-9,13-dimethyl-6-propyl-5,7-dioxapentacyclo[10.8.0.0^2,90.0^4,80.0^13,18]icosa-14,17-dien-16-one]: in assay [1] (72 hours of incubation), the Emax was greater than 75% and the EC50 is 0.01 to 0.1 µM. Besides, the IC50 in assay [2] is less than 0.01 µM.

For the molecule `C[C@@H]1C[C@H]2[C@@H]3C[C@H](F)C4=CC(=O)C=C[C@]4(C)[C@@]3(F)[C@@H](O)C[C@]2(C)[C@@]1(O)C(=O)CN` [Compound 4d, (1R,2S,8S,10S,11S,13R,14R,15S,17S)-14-(2-Aminoacetyl)-1,8-difluoro-14,17-dihydroxy-2,13,15-trimethyltetracyclo 18.7.0.0^2,70.0^11,15]heptadeca-3,6-dien-5-one trifluoroacetate], in assay [1], the EC50 was 0.01 to 0.05 µM and the “HEK293/9xUAS-Luc2P/pBind-GR/PRLR-HA high cells activation relative to Budesonide” value is “Partial”. In assay [2], this molecule registered a concentration for half-maximal inhibition (IC50) of 0.01 to 0.05 µM.

Turning to `CCCC1O[C@@H]2C[C@H]3[C@@H]4C[C@H](F)C5=CC(=O)C=C[C@]5(C)[C@@]4(F)[C@@H](O)C[C@]3(C)[C@]2(C(=O)COc2cccc(N)c2)O1` (stereo partly drawn) [11-13 R, (1S,2S,4R,6R,8S,9S,11S,12R,13S,19S)-8-[2-(3-Aminophenoxy)acetyl]-12,19-difluoro-11-hydroxy-9,13-dimethyl-6-propyl-5,7-dioxapentacyclo[10.8.0.0^2,90.0^4,80.0^13,18]icosa-14,17-dien-16-one], in assay [1] (72 hours of incubation), the Emax is greater than 75% and the EC50 was less than 0.01 µM. In assay [2], the IC50 was less than 0.01 µM.

As to `CCC[C@H]1O[C@@H]2C[C@H]3[C@@H]4C[C@H](F)C5=CC(=O)C=C[C@]5(C)[C@@]4(F)[C@@H](O)C[C@]3(C)[C@]2(C(=O)COc2ccc(N)cc2)O1` [Compound S-6-I, (1S,2S,4R,6S,8S,9S,11S,12R,13S,19S)-8-[2-(4-Aminophenoxy)acetyl]-12,19-difluoro-11-hydroxy-9,13-dimethyl-6-propyl-5,7-dioxapentacyclo[10.8.0.0^2,90.0^4,80.0^13,18]icosa-14,17-dien-16-one], in assay [1], the EC50 was less than 0.01 µM and the “HEK293/9xUAS-Luc2P/pBind-GR/PRLR-HA high cells activation relative to Budesonide” value is “Full”. In assay [2], this molecule yielded an IC50 of less than 0.01 µM.

As for `CCCC1O[C@@H]2C[C@H]3[C@@H]4C[C@H](F)C5=CC(=O)C=C[C@]5(C)[C@@]4(F)[C@@H](O)C[C@]3(C)[C@]2(C(=O)COc2ccc(N)cc2)O1` (stereo partly drawn) [11-12 R/S, (1S,2S,4R,8S,9S,11S,12R,13S,19S)-8-[2-(4-Aminophenoxy)acetyl]-12,19-difluoro-11-hydroxy-9,13-dimethyl-6-propyl-5,7-dioxapentacyclo[10.8.0.0^2,90.0^4,80.0^13,18]icosa-14,17-dien-16-one], in assay [1] (72 hours of incubation), the Emax is greater than 75% and the EC50 is less than 0.01 µM. In assay [2], this molecule returned an IC50 of 0.01 to 0.1 µM.

In the case of `CCCC1O[C@@H]2C[C@H]3[C@@H]4CCC5=CC(=O)C=C[C@]5(C)[C@H]4[C@@H](O)C[C@]3(C)[C@]2(C(=O)CN)O1` (stereo partly drawn) [11-1 R/S, (1S,2S,4R,8S,9S,11S,12S,13R)-8-(2-Aminoacetyl)-11-hydroxy-9,13-dimethyl-6-propyl-5,7-dioxapentacyclo[10.8.0.0^2,9. 0^4,80.0^13,18]icosa-14,17-dien-16-one], in assay [1] (72 hours of incubation), the Emax is greater than 75% and the EC50 was less than 0.01 µM. The same molecule registered an IC50 in assay [2] of 0.01 to 0.1 µM.

As to `CCCC1O[C@@H]2C[C@H]3[C@@H]4C[C@H](F)C5=CC(=O)C=C[C@]5(C)[C@@]4(F)[C@@H](O)C[C@]3(C)[C@]2(C(=O)CNC)O1` (stereo partly drawn) [11-21 R/S, (1S,2S,4R,8S,9S,11S,12R,13S,19S)-12,19-Difluoro-11-hydroxy-9,13-dimethyl-8-[2-(methylamino)acetyl]-6-propyl-5,7-dioxapentacyclo[10.8.0.0^2,90.0^4,80.0^13,18]icosa-14,17-dien-16-one; trifluoroacetic acid], in assay [1] (72 hours of incubation), the Emax is 20 to 75% and the EC50 lay in the range of 0.01 to 0.1 µM. This molecule gave a half-inhibitory concentration (IC50) in assay [2] of less than 0.01 µM.

For `CCCC1O[C@@H]2C[C@H]3[C@@H]4CCC5=CC(=O)C=C[C@]5(C)[C@H]4[C@@H](O)C[C@]3(C)[C@]2(C(=O)COc2ccc(N)cc2)O1` (stereo partly drawn) [11-5 R/S, (1S,2S,4R,8S,9S,11S,12S,13R)-8-[2-(4-Aminophenoxy)acetyl]-11-hydroxy-9,13-dimethyl-6-propyl-5,7-dioxapentacyclo[10.8.00^2,90.0^4,80.0^13,18]icosa-14,17-dien-16-one], in assay [1] (72 hours of incubation), the Emax was greater than 75% and the EC50 is less than 0.01 µM. Besides, the IC50 in assay [2] was in the range of 0.01 to 0.1 µM.
